# Reference: US7276510B2, “HIV replication inhibitors” (Janssen Pharmaceutica, Inc., priority 2000, dated 2007)
# Counter-ions that a name gives are not always drawn.
# Key:
# [1] = Cytotoxicity in mock-infected MT-4 cells (MTT); type: cell-based; conditions: human, OD 540 nm
# Procedure: (§1) A rapid, sensitive and automated assay procedure was used for the in vitro evaluation of anti-HIV agents. An […] T4-cell line, MT-4, which was previously shown (Koyanagi et al., Int. J. Cancer, 36, 445-451, 1985) to be highly susceptible to and permissive for HIV infection, served as the target cell line. Inhibition of the HIV-induced cytopathic effect was used as the end point. The viability of both HIV- and mock-infected cells was assessed spectrophotometrically via the in situ reduction of 3-(4,5-dimethylthiazol-2-yl)-2,5-diphenyltetrazolium bromide (MTT). […] The percent protection achieved by the compound in HIV-infected cells was calculated by the following formula:
# (§2) [formula] whereby (ODT)HIV is the optical density measured with a given concentration of the test compound in HIV-infected cells; (ODC)HIV is the optical density measured for the control untreated HIV-infected cells; (ODC)MOCK is the optical density measured for the control untreated mock-infected cells; all optical density values were determined at 540 nm. […] The ratio of CC50 to IC50 was defined as the selectivity index (SI).
# HIV-infected MT-4 cells = experiment: Inhibition of the HIV-induced cytopathic effect in MT-4 cells (MTT); type: cell-based; conditions: for SI (selectivity index, ratio of CC50 to IC50): CC50/IC50 in MT-4 cells; for IC50: Human immunodeficiency virus 1, MT4, read-out: IC50 (50% inhibitory concentration; dose achieving 50% protection), HIV-infected MT-4 cells, MTT, OD 540 nm
# Procedure: as §1, §2
melting point,Structure (SMILES),CC50 [1],"SI (selectivity index, ratio of CC50 to IC50) (HIV-infected MT-4 cells)",IC50 (HIV-infected MT-4 cells)
238 to 240 °C,Cc1cc(C#N)cc(C)c1Oc1nc(Nc2ccc(C#N)cc2)nc(CCl)c1Br [Compound 73],,,
198 to 199 °C,COc1nc(Cc2c(Cl)cccc2Cl)nc(Nc2ccc(C#N)cc2)n1 [Compound 9],> 100000 nM,>10000,10 nM
,"Cc1cc(C)c(Nc2nc(Nc3ccc(C#N)cc3)nc(C(N)=O)n2)c(C)c1 [Compound 19, 6-[(4-cyanophenyl)amino]-4-[(2,4,6-trimethylphenyl)amino]-1,3,5-triazine-2-carboxamide]",3980 nM,3162,1.26 nM
302 to 304 °C,N#Cc1ccc(Nc2nc(Cc3c(Cl)cccc3Cl)nc(-n3[nH]nnc3=N)n2)cc1 [Compound 46],,,
> 300 °C,N#Cc1ccc(Nc2nc(O)nc(Cc3c(Cl)cccc3Cl)n2)cc1 [Compound 10],,,
,COc1ccc(Nc2nc(Oc3c(C)cc(C#N)cc3C)cc(C(=O)N(C)C)n2)cn1 [Compound 65],79400 nM,1000,79.4 nM
249 to 251 °C,"Cc1cc(C#N)cc(C)c1Nc1cc(C(F)(F)F)nc(Nc2ccc(C#N)cc2)n1 [Compound 33, 4-[[[6-trifluoromethyl-2-(4-cyanophenylamino)]-4-pyrimidinyl]amino]-3,5-dimethylbenzonitrile]",5010 nM,1586,3.16 nM
198 to 199 °C,"COCc1nc(Nc2ccc(C#N)cc2)nc(Oc2c(C)cc(C#N)cc2C)c1Br [Compound 12, 4-[[[5-bromo-4-(4-cyano-2,6-dimethylphenoxy)-6-methoxymethyl]-2-pyrimidinyl]amino]benzonitrile]",> 100000 nM,>25000,4 nM
199 to 201 °C,N#Cc1ccc(Nc2nc(F)nc(Cc3c(Cl)cccc3Cl)n2)cc1 [Compound 49],,,
221 to 230 °C,N#Cc1ccc(Nc2nc(C#N)nc(Cc3c(Cl)cccc3Cl)n2)cc1 [Compound 5],10000 nM,501,19.9 nM
268 to 269 °C,N#Cc1ccc(Nc2nc(Cc3c(Cl)cccc3Cl)nc(N3C(=O)COCC3=O)n2)cc1 [Compound 4],39800 nM,25197,1.58 nM
287 to 295 °C,NC(=O)c1ccc(Nc2nc(Cc3c(Cl)cccc3Cl)nc(C(N)=O)n2)cc1 [Compound 40],,,
249 to 252 °C,Clc1cccc(Cl)c1Cc1nc(Nc2ccc(-c3nnn[nH]3)cc2)nc(-c2nnn[nH]2)n1 [Compound 42],,,
,"Cc1cc(C#N)cc(C)c1Oc1nc(Nc2ccc(C#N)cc2)nc(CO)c1Br [Compound 13, 4-[[[5-bromo-4-(4-cyano-2,6-dimethylphenoxy)-6-hydroxymethyl]-2-pyrimidinyl]amino]benzonitrile]",> 100000 nM,>25000,4 nM
,"Cc1cc(C)c(Nc2cc(C(N)=O)nc(Nc3ccc(C#N)cc3)n2)c(C)c1 [Compound 61, 2-[(4-cyanophenyl)amino]-6-[(2,4,6-trimethylphenyl)amino]-4-pyrimidine carboxamide]",50100 nM,19968,2.51 nM
,CNC(=O)c1cc(Nc2c(C)cc(C)cc2C)nc(Nc2ccc(C#N)cc2)n1 [Compound 63],39800 nM,7946,5.01 nM
,N#Cc1ccc(Nc2nc(CO)cc(Oc3c(Br)cc(C#N)cc3Br)n2)cc1 [Compound 14],> 10000 nM,2500,4 nM
225 to 227 °C,C=CCONc1nc(Cc2c(Cl)cccc2Cl)nc(Nc2ccc(C#N)cc2)n1 (as salt: trifluoroacetate) [Compound 43],,,

melting point,Structure (SMILES),CC50 [1],"SI (selectivity index, ratio of CC50 to IC50) (HIV-infected MT-4 cells)",IC50 (HIV-infected MT-4 cells)
,"Cc1cc(C)c(Nc2nc(Nc3ccc(C#N)cc3)nc(C(N)=O)c2Br)c(C)c1 [Compound 98, 5-bromo-2-[(4-cyanophenyl)amino]-6-[(2,4,6-trimethylphenyl)amino]-4-pyrimidine carboxamide]",50100 nM,15861,3.16 nM
,COC(=O)c1cc(Nc2c(C)cc(C)cc2C)nc(Nc2ccc(C#N)cc2)n1 [Compound 62],7940 nM,1261,6.3 nM
,N#Cc1ccc(Nc2nc(Cc3c(Cl)cccc3Cl)nc(N3CCC(=O)O3)n2)cc1 [Compound 35],50100 nM,794,63.1 nM
262 to 263 °C,N#Cc1ccc(Nc2nc(Cc3c(Cl)cccc3Cl)nc(C(N)=O)n2)cc1 [Compound 38],> 100000 nM,>39841,2.51 nM
,Cc1cc(C)c(Nc2cc(C(=O)N(C)C)nc(Nc3ccc(C#N)cc3)n2)c(C)c1 [Compound 66],31600 nM,19950,1.58 nM
219 to 221 °C,C[S+]([O-])c1nc(Cc2c(Cl)cccc2Cl)nc(Nc2ccc(C#N)cc2)n1 (stereo not shown) [Compound 8],,,
278 to 282 °C,N#Cc1ccc(Nc2nc(Cc3c(Cl)cccc3Cl)nc(N3C(=O)CCCC3=O)n2)cc1 [Compound 37],,,
,N#Cc1ccc(Nc2nc(Cc3c(Cl)cccc3Cl)nc(N3CC(O)CO3)n2)cc1 (stereo not shown) [Compound 11],63100 nM,25138,2.51 nM
,COc1ccc(Nc2nc(Oc3c(C)cc(C#N)cc3C)cc(C(N)=O)n2)cn1 [Compound 56],> 100000 nM,1585,63.1 nM
223 to 224 °C,CNCc1nc(Nc2ccc(C#N)cc2)nc(Oc2c(C)cc(C#N)cc2C)c1Br [Compound 74],,,
,"N#Cc1ccc(Nc2nc(CO)c(Br)c(Oc3c(Br)cc(C#N)cc3Br)n2)cc1 [Compound 16, 4-[[[5-bromo-4-(4-cyano-2,6-dibromophenoxy)-6-hydroxymethyl]2-pyrimidinyl]amino]benzonitrile]",> 100000 nM,>39841,25.1 nM
,C=CCONc1nc(Cc2c(Cl)cccc2Cl)nc(Nc2ccc(C#N)cc2)n1 [Compound 43],63100 nM,3981,15.8 nM
175 °C,N#Cc1ccc(Nc2nc(Cc3c(Cl)cccc3Cl)nc(N3CC(O)CO3)n2)cc1 (stereo not shown) (as salt: trifluoroacetate) [Compound 11],,,
275 to 285 °C,N#Cc1ccc(Nc2nc(Cc3c(Cl)cccc3Cl)cc(-n3ccnc3)n2)cc1 [Compound 39],,,
254 to 255 °C,N#Cc1ccc(Nc2nc(S)nc(Cc3c(Cl)cccc3Cl)n2)cc1 [Compound 6],,,
243 to 244 °C,"N#Cc1ccc(Nc2nc(Cl)nc(Cc3c(Cl)cccc3Cl)n2)cc1 [Compound 1, 4-[[4-chloro-6-[(2,6-dichlorophenyl)methyl]-1,3,5-triazin-2-yl]amino]-benzonitrile]",,,
260 to 265 °C,Cc1cc(C#N)cc(C)c1Oc1nc(Cl)nc(Nc2ccc(C#N)cc2)n1 [Compound 60],,,
238 to 239 °C,N#Cc1ccc(Nc2nc(Cl)nc(Oc3c(Cl)cc(Cl)cc3Cl)n2)cc1 [Compound 72],,,
